Among the data in PubChem BioAssay AID1249 (Columbia University Molecular Screening Center, 2008) are inhibition and cell count values, retold here.

What is called inhibition is the drop in the measured response relative to a control, in per cent.

Active and inactive are the calls of the source. No rule for the calls is given here.

The nature of the first experiment: cellular cytoskeleton assembly phenotype modulators – imaging, high-content imaging, retest and dose response, confirmation (AID 1249).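 Also: compound exposure lasted 24 h before fixation.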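 As to inhibition: plate controls were untreated cells for no effect and reference compound treated cells for full effect.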 Particulars: cell-based imaging, cytoskeleton assembly phenotype, high content; at 2 µM; stronger effect = higher value.
For `C/C(=N\O)c1ccc2c3ccccc3n(C)c2c1`, the inhibition was -20.9% (inactive).
Still for that read-out and setting: the same measure for `CN(C)c1cccc(C(=O)Nc2ccc(N3CCOCC3)cc2)c1`: -5.4% (inactive); for `COC(=O)CSc1nc2nc(C)c(Br)cc2[nH]1`: 1.5% (inactive).
Still for that read-out and setting: the same measure for `Cc1cc(NC(=O)CSc2nnnn2C)n(-c2ccccc2)n1`: -7.2% (inactive); for `O=C(Cn1cccc1C(=O)c1ccccc1)NCCN1CCOCC1`: -4.4% (inactive).
On the same count and under the same terms, the same measure for `CCOC(=O)c1ccc(N2C(=O)CC(N3CCC(O)(c4ccc(Br)cc4)CC3)C2=O)cc1` (centres undefined): 5.5% (inactive).
As for `O=C(NCc1cccs1)c1nc2c(nnn2Cc2ccccc2Cl)c(=O)[nH]1`, the inhibition was -3.6% (inactive).
Still for that read-out and setting: as for `O=C(O)c1ccc(CNCc2ccccc2Cl)cc1`, the figure is 21.6% (inactive).
For `O=C(COc1ncnc2sccc12)Nc1ccc2c(c1)OCCO2`, the inhibition was 1.1% (inactive).
Still for that read-out and setting: as for `FC(F)(F)c1cc(-c2ccc3c(c2)OCO3)nc(NCc2ccco2)n1`, the figure is -1.9% (inactive); as for `CSc1ccc(CNC2CN3CCC2CC3)cc1` (centres undefined), 1.5% (inactive); as for `Nn1c(SCC(=O)Nc2ccc3c(c2)OCCO3)nnc1C(F)(F)F`, -22.1% (inactive).
Still for that read-out and setting: as for `Cc1n[nH]c(=O)nc1NCc1ccccc1`, the figure is 4% (inactive).
The same measure, in the same setting: as for `CCOC(=O)N1CCC(NC(=O)c2ccc(CS(=O)(=O)c3ccc(OC)cc3)o2)CC1`, the figure is -7.4% (inactive); as for `COc1ccc2[nH]c(=O)c(CN(C(=O)c3ccncc3)C(C)C)cc2c1`, -5.6% (inactive).
With `Cc1ccc(C)c(NC(=S)NC(NC(=O)Cc2cccc3ccccc23)C(Cl)(Cl)Cl)c1` (centres undefined), the inhibition was -16% (inactive).
Regarding `COc1ccc(NC(=O)N2CCn3c2nc2ccccc23)cc1`, the inhibition is 5% (inactive).
On the same count and under the same terms, the same measure for `C=CCn1c(SCC(=O)Nc2ccc(C(=O)OCC)cc2)nnc1-c1sc(N)nc1C`: -0.9% (inactive).
Same read-out and setting: the same measure for `COc1ccc(Cn2c(CCC(=O)O)nc3cccnc32)cc1`: -3% (inactive); for `C=CCn1c(=O)c2c(nc3n2CC(C)CN3c2cccc(OC)c2)n(C)c1=O` (centres undefined): -8.1% (inactive).
On the same count and under the same terms, the same measure for `C/C(=N\Nc1nc2c(s1)CCCC2)c1ccccc1`: -2.4% (inactive); for `CCOc1ccc(C2/C(=C(\O)c3c(C)[nH]c(C(=O)OC)c3C)C(=O)C(=O)N2CCN(C)C)cc1` (centres undefined): -9% (inactive).
`CCCCCCOC(=O)NCC(O)c1ccccc1` (centres undefined): the inhibition was 9.1% (inactive).
The same measure, in the same setting: as for `CSCCC(NC(=O)OCc1ccccc1)C(=O)O` (centres undefined), the figure is -2% (inactive); as for `CS(=O)(=O)N(CC(=O)NCc1ccccc1Cl)Cc1ccccc1`, 0% (inactive); as for `C=CCOC(=O)C1=C(C)OC(N)=C(C#N)C12C(=O)N(CN1CCOCC1)c1ccccc12` (centres undefined), -12.8% (inactive).
The same measure, in the same setting: the same measure for `CN(CC(=O)NCc1ccncc1)S(=O)(=O)c1ccc(F)cc1`: 2.2% (inactive); for `N#Cc1c(N)nc(SCC(=O)NCc2ccc3c(c2)OCO3)c(C#N)c1-c1cccs1`: 0.2% (inactive).
Same read-out and setting: the same measure for `CCN1CCN(Cc2c(C)[nH]c3ccc(C(=O)OC)cc3c2=O)CC1`: -6.7% (inactive).
For `Cn1cc(-c2nnnn2-c2ccc(Cl)cc2)c(=O)c2ccccc21`, the inhibition is -6.6% (inactive).
Same read-out and setting: as for `Cc1ccc(-n2nc3ccc(NC(=O)/C=C/c4ccco4)cc3n2)cc1C`, the figure is -5.3% (inactive).
On the same count and under the same terms, the same measure for `C/C=C/COC(=O)c1[nH]c2c(c1C)C(=O)CC(c1ccco1)C2` (centres undefined): -1.7% (inactive); for `O=[N+]([O-])c1ccc(Sc2nc3ccccc3o2)c([N+](=O)[O-])c1`: 4.3% (inactive).
On the same count and under the same terms, as for `O=C(CCSc1nnc2scc(-c3ccccc3)n12)Nc1nc(-c2ccccc2)ns1`, the figure is -3.3% (inactive).
Turning to `CCCCn1cnc2c1c(=O)[nH]c(=O)n2CCCC`, the inhibition was -11.3% (inactive).
The same measure, in the same setting: as for `COc1cc(C2Nc3ccc4ncccc4c3C3=C2C(=O)CCC3)cc(OC)c1O` (centres undefined), the figure is 1.2% (inactive); as for `Cc1ccccc1-c1cc(-c2ccccc2O)on1`, -5.9% (inactive).
Turning to `COC(=O)c1cccc(S(=O)(=O)N(Cc2ccco2)Cc2cc3ccc(OC)cc3[nH]c2=O)c1`, the inhibition is -3.3% (inactive).
Same read-out and setting: the same measure for `O=c1cc(C(Cl)(Cl)Cl)oc2c1ccc1ccccc12`: -13.6% (inactive); for `C/C(=C\C(=O)c1cccnc1)Nc1ccc(C)c(C)c1`: 1.3% (inactive); for `Cc1ccc(NC(=O)c2oc3c(c2C)C(=O)CC(C)(C)C3)cc1`: -7.9% (inactive).
Same read-out and setting: as for `CCN(CC)c1ccc(C2=NNC(=O)CC2C)cc1[N+](=O)[O-]` (centres undefined), the figure is -7.3% (inactive); as for `CNc1c([N+](=O)[O-])cnn1-c1ccc(Cl)cc1`, -10.2% (inactive).
The same measure, in the same setting: the same measure for `CC(C)(CO)NC(=O)CCCOc1ccc(Cl)cc1Cl`: -0.1% (inactive).
As to `Cn1nc(CC(=O)NC2CCCCCC2)c2ccccc2c1=O`, the inhibition is -17.6% (inactive).
`C=C1N2CCC(CC2)C1(O)c1ccccc1C` (centres undefined): the inhibition is -0.8% (inactive).
Still for that read-out and setting: as for `COc1ccc(CC(=O)OCc2cc3ccc(C)cc3[nH]c2=O)cc1`, the figure is 5.4% (inactive).
Still for that read-out and setting: as for `CCCOc1ccc(C(=O)C(CN2CCOCC2)c2ccccc2)cc1` (centres undefined), the figure is 4.4% (inactive); as for `CCC(=O)c1c[nH]c(C(=O)NCC2CCCO2)c1` (centres undefined), -0.5% (inactive).
Same read-out and setting: as for `O=c1n(Cc2ccccc2F)c2ccccc2n1Cc1ccccc1F`, the figure is 5.3% (inactive); as for `COC(=O)c1c(NC(=O)c2ccc(S(=O)(=O)N3CCOCC3)cc2)sc2c1CCN(C)C2`, -2.4% (inactive); as for `CCOc1ccccc1/C=N/Nc1ccccc1[N+](=O)[O-]`, -0.7% (inactive).
For the compound `CCOC(=O)C1=C(c2ccccc2)OC(N)=C(C#N)C1c1ccco1` (centres undefined), the inhibition is -12.1% (inactive).
Turning to `O=C(Nc1ccc(Oc2ccccc2)cc1)C1CCCN(c2ncccn2)C1` (centres undefined), the inhibition was 11.6% (inactive).
Turning to `CC(C)c1nnc(NC(=O)CCC(=O)N2CCN(C3CCCCC3)CC2)s1`, the inhibition was 3.6% (inactive).
On the same count and under the same terms, the same measure for `COc1cccc(C(C#N)N2CCCCC2)c1O` (centres undefined): 1.4% (inactive); for `Cc1cccc(CS(=O)(=O)c2nnc([C@H](Cc3ccccc3)NC(=O)OC(C)(C)C)o2)c1`: -5% (inactive).
On the same count and under the same terms, as for `Cc1ccc(O)c(NC(=O)C2CC(c3c(F)cccc3Cl)=NO2)c1` (centres undefined), the figure is -4.4% (inactive).
Still for that read-out and setting: the same measure for `CCCCCCCCCCn1c2c(c(=N)c3c1CCC3)CCC2`: -24.6% (inactive).
For the compound `S=c1[nH]nc(COc2ccc3c(c2)OCO3)n1-c1ccccc1`, the inhibition was 6.4% (inactive).
Still for that read-out and setting: as for `O=C1CC(N2CCN(Cc3ccc4c(c3)OCO4)CC2)C(=O)N1Cc1ccc(N2CCCC2=O)cc1` (centres undefined), the figure is -1.8% (inactive); as for `Cc1cc(NC(=O)CSc2nc(-c3cccs3)cc(C(F)(F)F)n2)no1`, -6.4% (inactive).
Same read-out and setting: the same measure for `CCCn1c(=O)c2ccccc2n2c(SCC(=O)NCc3cccs3)nnc12`: -5.9% (inactive); for `CCCCN(C(=O)NC(=O)Nc1cccc(C)c1C)S(C)(=O)=O`: 1.6% (inactive).
On the same count and under the same terms, the same measure for `COc1ccc(-c2n[nH]c(=S)n2C2CCCCC2)cc1`: 5.3% (inactive); for `O=C1c2cccc3c([N+](=O)[O-])ccc(c23)C(=O)N1c1ccc(Cl)cn1`: -13.4% (inactive); for `CCOc1ccc2[nH]c(C)c(CN3CCOCC3)c(=O)c2c1`: -4.5% (inactive).
In the case of `N#CCc1nc2c3c4c(sc3ncn2n1)CCCC4`, the inhibition is -15.1% (inactive).
The same measure, in the same setting: the same measure for `O=C(NCCO)C(c1ccccc1)c1ccccc1`: 3.5% (inactive); for `Cc1cc(C)c(/C=N/NC(N)=O)c(C)c1/C=N/NC(N)=O`: -10% (inactive).
Same read-out and setting: as for `CN(Cc1ccccc1)C(=O)c1ccccc1NC(=O)c1ccccc1`, the figure is 5.1% (inactive).
Same read-out and setting: the same measure for `NC1=CC(=O)c2cccc3cccc1c23`: -0.4% (inactive).
Consider `CC(=O)c1cccc(NS(=O)(=O)c2c(C)noc2C)c1`, for which the inhibition was -13.9% (inactive).
`CCC(C)[C@@H](NC(=O)OC(C)(C)C)c1nnc(S(=O)(=O)Cc2cccc(C)c2)o1` (some centres undefined): the inhibition was 1.2% (inactive).
On the same count and under the same terms, the same measure for `N#Cc1c(NCc2ccccc2)ccnc1NCc1cccnc1`: 1.2% (inactive).
Same read-out and setting: as for `Cc1nccn1-c1ccc(C(F)(F)F)cc1NC=O`, the figure is -12.8% (inactive).
As to `CCOC(=O)c1cnn(-c2nc(-c3ccc(C)cc3)cs2)c1C(F)(F)F`, the inhibition was -7.1% (inactive).
Same read-out and setting: as for `Cc1csc(NC(=O)CSc2nnc(-c3ccc(S(=O)(=O)N4CCCC4)cc3)o2)n1`, the figure is 4.6% (inactive).
Still for that read-out and setting: as for `COc1ccc(CS(=O)(=O)/C(Cl)=C(/Cl)C(=O)Nc2ccc(OC)nc2)cc1`, the figure is -6.2% (inactive).
Same read-out and setting: the same measure for `CCOC(=O)c1ccc(CNC(=O)CCC(=O)O)cc1`: -7% (inactive).
Take `C#CC(=O)N(c1cccc(OC)c1)C(C(=O)NC1CCCC1)c1cccs1` (centres undefined): the inhibition was -5.8% (inactive).
Consider `Clc1ccc2nc(CSc3nc4ccccc4o3)cn2c1`, for which the inhibition is 14.4% (inactive).
The same measure, in the same setting: the same measure for `O=C(c1ccc([N+](=O)[O-])cc1)N(Cc1ccc(Cl)cc1)N1C(=O)CCCC1=O`: -0.3% (inactive); for `Cc1nc2ccccc2n1CCCOc1ccccc1`: 1% (inactive).
Still for that read-out and setting: as for `CC(C)(C)SCCNC(=O)CN(c1ccc(F)cc1)S(C)(=O)=O`, the figure is -2.5% (inactive).
Take `O=C(NC(Nc1nc2ccc([N+](=O)[O-])cc2s1)(C(F)(F)F)C(F)(F)F)c1ccccc1`: the inhibition is -15.3% (inactive).
Still for that read-out and setting: the same measure for `O=c1c2c3c(sc2nc2n1CCC2)CCC3`: -14.6% (inactive); for `CC1(C)Cc2c(oc3ncn4ncnc4c23)CO1`: 2.7% (inactive).

The same experiment, now with this note: cell-based imaging, cytoskeleton assembly phenotype, high content; cell count; at 10 µM; stronger effect = lower value.
For the compound `COc1cc(C2C(C#N)=C(N)Oc3cc(N(C)C)ccc32)cc2c1OCO2` (centres undefined), the cell count turned out to be 39.3%.
